Read-outs that look alike come from different tables or passages of the source.
Test system: NL-RLuc virus
Assay: Inhibition of HIV replication (NL-RLuc reporter virus in MT-2 cells, luciferase readout)
Format: cell-based
Details: Human immunodeficiency virus 1, MT2, 120 h
Method in brief: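 Antiviral EC50 came from luciferase signal after 5-day multicycle replication of NL-RLuc virus in MT-2 cells with serially diluted compound (RPMI 1640, 10% heat-inactivated FBS), fitted by the median effect equation over at least 2 experiments.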

Row | SMILES | EC50 (read-out: Activity) [µM] | EC50 (read-out: EC50 μM) [µM]
1 | Cc1cccc(Cl)c1CN1CCc2cc(-c3cnc(C)c([C@H](OC(C)(C)C)C(=O)O)c3N3CCC(C)(C)CC3)ccc2C1 [Compound 164, (S)-2-(tert-Butoxy)-2-(5-(2-(2-chloro-6-methylbenzyl)-1,2,3,4-tetrahydroisoquinolin-6-yl)-4-(4,4-dimethylpiperidin-1-yl)-2-methylpyridin-3-yl)acetic acid] | < 0.1 | 0.003
2 | Cc1ccccc1CN1CCc2cc(-c3cnc(C)c([C@H](OC(C)(C)C)C(=O)O)c3N3CCC(C)(C)CC3)ccc2C1 [Compound 165, (S)-2-(tert-Butoxy)-2-(4-(4,4-dimethylpiperidin-1-yl)-2-methyl-5-(2-(2-methylbenzyl)-1,2,3,4-tetrahydroisoquinolin-6-yl)pyridin-3-yl)acetic acid] | < 0.1 | –
3 | Cc1cccc(Cl)c1CN1CCc2cc(-c3c(C)nc(C)c([C@H](OC(C)(C)C)C(=O)O)c3N3CCCC(C)(C)C3)ccc2C1 [Compound 166, (S)-2-(tert-butoxy)-2-(5-(2-(2-chloro-6-methylbenzyl)-1,2,3,4-tetrahydroisoquinolin-6-yl)-4-(3,3-dimethylpiperidin-1-yl)-2,6-dimethylpyridin-3-yl)acetic acid] | < 0.1 | 0.023
